Source: ChEMBL document CHEMBL1649555, “Characterization of pABVA01, a plasmid encoding the OXA-24 carbapenemase from Italian isolates of Acinetobacter baumannii” (2009)
In brackets after ≈: the same amount, converted by molar mass.

Experiments:
Type in all cases: functional
Acinetobacter baumannii [1] = assay: Antibacterial activity against blaOXA-24-positive Acinetobacter baumannii isolate VA-566/00 by CLSI broth microdilution method
Acinetobacter baumannii [2] = assay: Antibacterial activity against blaOXA-24-positive Acinetobacter baumannii isolate N50 by CLSI broth microdilution method
Acinetobacter baumannii [3] = assay: Antibacterial activity against blaOXA-24-positive Acinetobacter baumannii isolate RUH134 by CLSI broth microdilution method
Acinetobacter baumannii [4] = assay: Antibacterial activity against blaOXA-24-positive Acinetobacter baumannii isolate RUH134 harboring plasmid ABVA01 by CLSI broth microdilution method
Acinetobacter baumannii [5] = assay: Antibacterial activity against blaOXA-24-positive Acinetobacter baumannii isolate RUH134 harboring plasmid ABVA01 by CLSI broth microdilution method in presence of Sulbactam
Acinetobacter baumannii [6] = assay: Antibacterial activity against blaOXA-24-positive Acinetobacter baumannii isolate RUH134 by CLSI broth microdilution method in presence of Sulbactam
Acinetobacter baumannii [7] = assay: Antibacterial activity against blaOXA-24-positive Acinetobacter baumannii isolate N50 by CLSI broth microdilution method in presence of Sulbactam
Acinetobacter baumannii [8] = assay: Antibacterial activity against blaOXA-24-positive Acinetobacter baumannii isolate VA-566/00 by CLSI broth microdilution method in presence of Sulbactam

Row | Compound | MIC (Acinetobacter baumannii [1]) [µg/mL] | MIC (Acinetobacter baumannii [2]) [µg/mL] | MIC (Acinetobacter baumannii [3]) [µg/mL] | MIC (Acinetobacter baumannii [4]) [µg/mL] | MIC (Acinetobacter baumannii [5]) [µg/mL] | MIC (Acinetobacter baumannii [6]) [µg/mL] | MIC (Acinetobacter baumannii [7]) [µg/mL] | MIC (Acinetobacter baumannii [8]) [µg/mL]
1 | C[C@@H](O)[C@H]1C(=O)N2C(C(=O)O)=C(S[C@@H]3CN[C@H](C(=O)N(C)C)C3)[C@H](C)[C@H]12 [MEROPENEM] | 256 (≈ 668 µM) | 128 (≈ 334 µM) | 1 (≈ 2.61 µM) | 128 (≈ 334 µM) |  |  |  | 
2 | COLISTIN | 0.5 | > 8 | 0.5 | 0.5 |  |  |  | 
3 | CC(C)(O/N=C(\C(=O)N[C@@H]1C(=O)N2C(C(=O)[O-])=C(C[n+]3ccccc3)CS[C@H]12)c1csc(N)n1)C(=O)O [CEFTAZIDIME] | > 256 | > 256 | 16 (≈ 29.3 µM) | 16 (≈ 29.3 µM) |  |  |  | 
4 | GENTAMICIN | > 256 | > 256 | > 256 | > 256 |  |  |  | 
5 | CC1(C)S[C@@H]2[C@H](NC(=O)[C@H](N)c3ccccc3)C(=O)N2[C@H]1C(=O)O [AMPICILLIN] |  |  |  |  | 64 | 64 | 32 | 64
6 | NCC[C@H](O)C(=O)N[C@@H]1C[C@H](N)[C@@H](O[C@H]2O[C@H](CN)[C@@H](O)[C@H](O)[C@H]2O)[C@H](O)[C@H]1O[C@H]1O[C@H](CO)[C@@H](O)[C@H](N)[C@H]1O [AMIKACIN] | 64 (≈ 109 µM) | 256 (≈ 437 µM) | 4 (≈ 6.83 µM) | 4 (≈ 6.83 µM) |  |  |  | 
7 | C[C@@H](O)[C@H]1C(=O)N2C(C(=O)O)=C(SCCNC=N)C[C@H]12 [IMIPENEM ANHYDROUS] | 256 (≈ 855 µM) | 128 (≈ 428 µM) | 0.25 (≈ 0.835 µM) | 64 (≈ 214 µM) |  |  |  | 
8 | CN(C)c1cc(NC(=O)CNC(C)(C)C)c(O)c2c1C[C@H]1C[C@H]3[C@H](N(C)C)C(O)=C(C(N)=O)C(=O)[C@@]3(O)C(O)=C1C2=O [TIGECYCLINE] | 4 (≈ 6.83 µM) | 1 (≈ 1.71 µM) | 1 (≈ 1.71 µM) | 1 (≈ 1.71 µM) |  |  |  | 
